# B1: recombinant human Ang1 (rhAng1) (ligand, UniProt Q15389 16-498, looked up)
# chain: HIGCSNQRRSPENSGRRYNRIQHGQCAYTFILPEHDGNCRESTTDQYNTNALQRDAPHVEPDFSSQKLQHLEHVMENYTQWLQKLENYIVENMKSEMAQIQQNAVQNHTATMLEIGTSLLSQTAEQTRKLTDVETQVLNQTSRLEIQLLENSLSTYKLEKQLLQQTNEILKIHEKNSLLEHKILEMEGKHKEELDTLKEEKENLQGLVTRQTYIIQELEKQLNRATTNNSVLQKQQLELMDTVHNLVNLCTKEGVLLKGGKREEEKPFRDCADVYQAGFNKSGIYTIYINNMPEPKKVFCNMDVNGGGWTVIQHREDGSLDFQRGWKEYKMGFGNPSGEYWLGNEFIFAITSQRQYMLRIELMDWEGNRAYSQYDRFHIGNEKQNYRLYLKGHTGTAGKQSSLILHGADFSTKDADNDNCMCKCALMLTGGWWFDACGPSNLNGMFYTAGQNHGKLNGIKWHYFKGPSYSLRSTTMMIRPLDF
# notes: angiopoietin-1, human, recombinant; also called angiopoietin-1; source: bought: R&D Systems (named for the Boyden chamber experiments)
# Assays:
# Tie2 in HMVEC-DBls = experiment: in vitro Tie2 phosphorylation (immunoprecipitation/immunoblot), HMVEC-DBl; format: cell-based, human; details: VT 10 ng/mL vs Ang1 200 ng/mL, presence or absence of serum/supplements, Fig7F
# Excerpt: Figure 7 In vitro Vasculotide vs. Ang1 stimulations: effects on Tie2 receptor phosphorylation in primary endothelial cells—HUVECs (A-E) and HMVEC-DBls (F) • A–F Primary human umbilical vein endothelial cells (HUVECs) or primary human dermal microvascular endothelial cells (HMVEC-DBls) were stimulated at 80% confluency with Vasculotide (treatment), Ang1 (positive control; ligand of Tie2), PBS (vehicle control), or VEGF (negative control; non-ligand of Tie2). Tie2 was immunoprecipitated from cell lysates and immunoblotted for total Tie2 or phosphotyrosine. […] Source data are available online for this figure. […]
# Nodule areas were then […]
# unit converted (to μm2) and normalized to total lung section area (including air spaces) using ROI measurements from ImageJ software (NIH).
# 7. Histological assessment of primary tumor viability and hypoxia
# 5-μm thick sections of PFA-fixed paraffin-embedded mammary fat pad tumors were subjected to: (i) standard hematoxylin and eosin (H&E) staining to visualize viable vs. necrotic regions; or (ii) standard IHC staining with a goat anti-human carbonic anhydrase IX (CAIX or CA9) antibody (R&D Systems AF2188, 1:80 dilution) plus hematoxylin counterstain to visualize hypoxic regions. […]
# IHC staining for CAIX further marks a hypoxic band at the edge of the viability rim bordering the necrotic core – the thickness of this hypoxic edge was averaged over 12 measurements spaced 30o apart (see Fig. 5E).
# 8. Western immunoblotting for total or phosphorylated Tie2
# Cultured ECs and TCs were lysed in RIPA lysis buffer as previously described (Bogdanovic et al, 2006).
# Lung/ liver/ kidney tissues, which had been snap-frozen in liquid nitrogen once harvested from mice, were homogenized in RIPA lysis buffer (50 mM Tris-HCl pH 7.5, 150 mM NaCl, 1% Igepal, 0.5% sodium deoxycholate, 0.1% SDS, 1 mM Na3VO4 and protease inhibitors) at 4 °C. […]
# Semi-quantitative densitometry analysis of immunoblots was performed using the ChemiGenius2 bioimaging system and GeneSnap/GeneTools software (Syngene). […]
# [1] = test system: tumor cells across dermal HMVECs; experiment: modified Boyden chamber, TC-CM stimulated tumor cell migration; format: cell-based, human; details: Fig4B; for TC migration in presence of TC-CM: 20 ng/mL VT or 400 ng/mL Ang1 vs PBS, paired t-test, n = 6 experimental replicates; for inhibition of TC migration, on average: 20 ng/mL VT
# Experimental: To investigate this possibility in vitro, we performed modified Boyden chamber assays where we stimulated ECs with tumor cell-conditioned media (TC-CM)—that is, supplement-reduced EC growth media containing all the cytokines naturally secreted by LM2-4^luc, SN12^luc, or HT29^luc cells over 30 hours of hypoxic incubation (1% O2).
# Meta-analyses of treatment effects on dextran permeability (A) and tumor cell migration (B), where each datapoint represents the mean of an independent experiment, averaged over 2–3 biological replicates (inserts) per treatment group and normalized internally within that same experiment.
# Endothelial cells (ECs) were grown on cell culture inserts with uncoated 8-μm-pore PET filter membranes to 100% confluency. See Supplementary Fig S4 for detailed timelines. […] Permeability assays: A total of 100 μg of FITC-dextran (Sigma FD-20S) was dispensed into the upper chamber media. After 30 min of thrombin stimulation or 4–6 h of TC-CM stimulation, FITC fluorescence (ex/em = 490/520 nm) was measured from a 50 μl sample of the lower chamber media. Tumor cell extravasation assays: A total of 4 × 10^4 TCs freshly labeled with CellTracker™ Red CMPTX (Invitrogen C34552: ex/em = 577/602 nm) were seeded into each insert. Where EDTA was used in the permeability assay, the assay media was changed to remove EDTA before introducing TCs. After a 15- to 30-h incubation, the ECs and non-migrated TCs above insert membranes were removed with a cotton swab, whereas migrated/‘extravasated’ TCs and ECs below insert membranes were fixed in 4% PFA. Fixed membranes were mounted onto slides with DAPI stain. CMPTX fluorescence from migrated TCs was then quantified from 10× microscopy images using a MATLAB (MathWorks, Natick, MA, USA) script; five images (technical replicates) were analyzed per insert.
# TCs were cultured in DMEM High Glucose basal media supplemented with 5% FBS and grown humidified incubators at 37 °C, 21%O2 and 5%CO2 unless otherwise specified. LM2-4 luc is a highly metastatically aggressive variant of the human breast carcinoma MDA-MB-231 cell line (derived through serial in vivo selection of lung metastases from orthotopic implantations in immunodeficient mice) that has been transfected with a firefly luciferase vector (Man et al, 2007; Ebos et al, 2009). HT29luc is a human colon carcinoma cell line also transfected with the luciferase gene (Hackl et al, 2013). SN12luc refers to a luciferase-tagged and highly metastatic clone of a human renal cell carcinoma cell line, SN12-
Molecule,Tie2 phosphorylation (Tie2 in HMVEC-DBls),Tie2 phosphorylation (Tie2 in HMVEC-DBls; listed as VT),TC migration in presence of TC-CM [1],"inhibition of TC migration, on average ([1]; LM2-4luc-conditioned media)","inhibition of TC migration, on average ([1]; SN12luc-conditioned media)"
"CHHHRHSF [Vasculotide, 4-armed maleimide-functionalized polyethylene glycol (PEG) backbone to link together four cysteine-capped T7 peptides, that is, CHHHRHSF]",did not activate Tie2 receptors in HMVEC-DBls,did not have similar activity as equimolar Ang1,P = 0.10 for VT,−43%,−23%
B1,strongly and consistently activated Tie2 phosphorylation,,P < 0.05 for Ang1,,
